Tests used:
Test in all cases: biochemical
[1] = target: T1, EPH-A2 (Homo sapiens, UniProt P29317); parameters: Dundee MRC-PPU Express kinase screen, remaining kinase activity; conditions: read-out: Mean % of remaining kinase activity (±sd)
T1 construct: gene EPHA2

[2] = target: IRAK4 (Homo sapiens, UniProt Q9NWZ3); parameters: Dundee MRC-PPU Express kinase screen, remaining kinase activity; conditions: read-out: Mean % of remaining kinase activity (±sd)
[3] = target: Lck (Homo sapiens, UniProt P06239); parameters: Dundee MRC-PPU Express kinase screen, remaining kinase activity; conditions: read-out: Mean % of remaining kinase activity (±sd)
[4] = target: T2, MKK1 (Homo sapiens, UniProt Q02750); parameters: Dundee MRC-PPU Express kinase screen, remaining kinase activity; conditions: read-out: Mean % of remaining kinase activity (±sd)
T2 construct: gene MAP2K1
T2 sequence (Q02750 whole entry): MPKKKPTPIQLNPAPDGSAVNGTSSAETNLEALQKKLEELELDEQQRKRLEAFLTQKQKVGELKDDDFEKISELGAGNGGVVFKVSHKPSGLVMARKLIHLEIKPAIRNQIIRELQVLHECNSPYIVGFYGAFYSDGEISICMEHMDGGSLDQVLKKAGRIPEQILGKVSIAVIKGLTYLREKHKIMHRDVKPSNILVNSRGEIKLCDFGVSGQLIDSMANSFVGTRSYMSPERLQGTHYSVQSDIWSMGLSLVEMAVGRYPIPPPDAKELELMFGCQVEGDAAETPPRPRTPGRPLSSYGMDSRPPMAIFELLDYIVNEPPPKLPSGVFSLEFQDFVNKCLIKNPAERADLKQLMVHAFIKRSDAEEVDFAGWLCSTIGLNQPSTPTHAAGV

[5] = target: T3, PRK2 (Homo sapiens, UniProt Q16513); parameters: Dundee MRC-PPU Express kinase screen, remaining kinase activity; conditions: read-out: Mean % of remaining kinase activity (±sd)
T3 construct: gene PKN2

[6] = target: RIPK2 (Homo sapiens, UniProt O43353); parameters: Dundee MRC-PPU Express kinase screen, remaining kinase activity; conditions: read-out: Mean % of remaining kinase activity (±sd)
[7] = target: TTK (Homo sapiens, UniProt P33981); parameters: Dundee MRC-PPU Express kinase screen, remaining kinase activity; conditions: read-out: Mean % of remaining kinase activity (±sd)
[8] = target: T4, 5-HT1A (h) (Homo sapiens, UniProt P08908); parameters: CEREP ExpresSProfile competition binding, remaining control specific binding of reference compound; conditions: radioligand binding; read-out: Mean % of control specific binding (±sd)
T4 construct: gene HTR1A

[9] = target: T5, A1 (h) (Homo sapiens, UniProt P30542); parameters: CEREP ExpresSProfile competition binding, remaining control specific binding of reference compound; conditions: radioligand binding; read-out: Mean % of control specific binding (±sd)
T5 construct: gene ADORA1
T5 sequence (P30542 whole entry): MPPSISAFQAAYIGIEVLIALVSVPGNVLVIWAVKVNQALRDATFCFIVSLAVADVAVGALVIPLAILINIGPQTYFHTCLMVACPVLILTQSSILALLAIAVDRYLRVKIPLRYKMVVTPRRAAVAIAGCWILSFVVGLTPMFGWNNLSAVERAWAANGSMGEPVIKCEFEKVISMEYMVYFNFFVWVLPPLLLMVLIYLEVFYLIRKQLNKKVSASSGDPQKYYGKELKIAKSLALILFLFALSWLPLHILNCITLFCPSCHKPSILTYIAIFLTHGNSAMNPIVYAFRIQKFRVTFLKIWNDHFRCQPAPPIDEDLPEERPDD

[10] = target: T6, A2A (h) (Homo sapiens, UniProt P29274); parameters: CEREP ExpresSProfile competition binding, remaining control specific binding of reference compound; conditions: radioligand binding; read-out: Mean % of control specific binding (±sd)
T6 construct: gene ADORA2A

[11] = target: T7, A3 (h) (Homo sapiens, UniProt P0DMS8); parameters: CEREP ExpresSProfile competition binding, remaining control specific binding of reference compound; conditions: radioligand binding; read-out: Mean % of control specific binding (±sd)
T7 construct: gene ADORA3
T7 sequence (P0DMS8 whole entry): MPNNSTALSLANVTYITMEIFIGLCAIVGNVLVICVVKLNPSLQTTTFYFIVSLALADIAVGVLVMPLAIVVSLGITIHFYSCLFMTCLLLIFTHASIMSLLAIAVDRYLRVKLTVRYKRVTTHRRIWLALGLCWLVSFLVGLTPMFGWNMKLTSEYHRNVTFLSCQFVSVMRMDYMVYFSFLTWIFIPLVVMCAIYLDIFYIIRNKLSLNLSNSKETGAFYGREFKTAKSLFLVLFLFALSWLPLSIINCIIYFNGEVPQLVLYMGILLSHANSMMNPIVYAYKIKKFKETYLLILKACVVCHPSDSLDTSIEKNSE

[12] = target: T8, AT1 (h) (Homo sapiens, UniProt P30556); parameters: CEREP ExpresSProfile competition binding, remaining control specific binding of reference compound; conditions: radioligand binding; read-out: Mean % of control specific binding (±sd)
T8 construct: gene AGTR1

[13] = target: T9, B2 (h) (Homo sapiens, UniProt P30411); parameters: CEREP ExpresSProfile competition binding, remaining control specific binding of reference compound; conditions: radioligand binding; read-out: Mean % of control specific binding (±sd)
T9 construct: gene BDKRB2
T9 sequence (P30411 whole entry): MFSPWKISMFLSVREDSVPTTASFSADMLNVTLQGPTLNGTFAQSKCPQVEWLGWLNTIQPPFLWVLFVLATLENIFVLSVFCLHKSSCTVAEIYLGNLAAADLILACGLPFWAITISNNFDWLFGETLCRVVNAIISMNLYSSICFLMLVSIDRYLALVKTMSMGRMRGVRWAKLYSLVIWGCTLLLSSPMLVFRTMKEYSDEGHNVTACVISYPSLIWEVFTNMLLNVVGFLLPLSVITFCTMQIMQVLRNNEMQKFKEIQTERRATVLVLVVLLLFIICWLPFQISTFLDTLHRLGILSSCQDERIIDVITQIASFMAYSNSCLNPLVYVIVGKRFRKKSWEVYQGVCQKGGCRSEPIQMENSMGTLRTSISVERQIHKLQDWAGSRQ

[14] = target: T10, CCK1 (CCKA) (h) (Homo sapiens, UniProt P32238); parameters: CEREP ExpresSProfile competition binding, remaining control specific binding of reference compound; conditions: radioligand binding; read-out: Mean % of control specific binding (±sd)
T10 construct: gene CCKAR
T10 sequence (P32238 whole entry): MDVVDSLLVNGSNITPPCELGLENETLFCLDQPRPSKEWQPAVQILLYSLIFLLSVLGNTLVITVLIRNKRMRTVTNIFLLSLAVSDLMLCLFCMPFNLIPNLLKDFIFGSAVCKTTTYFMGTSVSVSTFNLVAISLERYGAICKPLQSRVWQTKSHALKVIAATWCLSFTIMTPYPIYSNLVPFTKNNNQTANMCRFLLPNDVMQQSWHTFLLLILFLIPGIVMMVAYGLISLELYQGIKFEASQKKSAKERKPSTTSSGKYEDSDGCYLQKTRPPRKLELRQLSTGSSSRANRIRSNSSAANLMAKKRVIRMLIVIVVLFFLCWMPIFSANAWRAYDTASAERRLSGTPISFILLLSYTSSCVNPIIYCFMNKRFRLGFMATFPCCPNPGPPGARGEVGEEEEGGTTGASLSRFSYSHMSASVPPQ

[15] = target: CCR1 (h) (Homo sapiens, UniProt P32246); parameters: CEREP ExpresSProfile competition binding, remaining control specific binding of reference compound; conditions: radioligand binding; read-out: Mean % of control specific binding (±sd)
[16] = target: CXCR2 (IL-8B) (h) (Homo sapiens, UniProt P25025); parameters: CEREP ExpresSProfile competition binding, remaining control specific binding of reference compound; conditions: radioligand binding; read-out: Mean % of control specific binding (±sd)
Sequence of CXCR2 (IL-8B) (h) (P25025 whole entry): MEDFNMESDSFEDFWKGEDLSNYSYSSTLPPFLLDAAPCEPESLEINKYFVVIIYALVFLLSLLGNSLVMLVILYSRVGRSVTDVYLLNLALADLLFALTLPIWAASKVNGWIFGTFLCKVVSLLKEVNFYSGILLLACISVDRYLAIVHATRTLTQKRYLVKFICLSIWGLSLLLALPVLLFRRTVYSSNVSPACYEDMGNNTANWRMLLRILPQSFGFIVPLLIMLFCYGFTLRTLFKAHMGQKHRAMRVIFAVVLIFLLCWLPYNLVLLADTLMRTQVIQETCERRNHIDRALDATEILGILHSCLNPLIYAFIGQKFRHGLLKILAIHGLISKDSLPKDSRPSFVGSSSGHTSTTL

[17] = target: T11, D1 (h) (Homo sapiens, UniProt P21728); parameters: CEREP ExpresSProfile competition binding, remaining control specific binding of reference compound; conditions: radioligand binding; read-out: Mean % of control specific binding (±sd)
T11 construct: gene DRD1

[18] = target: T12, GAL2 (h) (Homo sapiens, UniProt O43603); parameters: CEREP ExpresSProfile competition binding, remaining control specific binding of reference compound; conditions: radioligand binding; read-out: Mean % of control specific binding (±sd)
T12 construct: gene GALR2
T12 sequence (O43603 whole entry): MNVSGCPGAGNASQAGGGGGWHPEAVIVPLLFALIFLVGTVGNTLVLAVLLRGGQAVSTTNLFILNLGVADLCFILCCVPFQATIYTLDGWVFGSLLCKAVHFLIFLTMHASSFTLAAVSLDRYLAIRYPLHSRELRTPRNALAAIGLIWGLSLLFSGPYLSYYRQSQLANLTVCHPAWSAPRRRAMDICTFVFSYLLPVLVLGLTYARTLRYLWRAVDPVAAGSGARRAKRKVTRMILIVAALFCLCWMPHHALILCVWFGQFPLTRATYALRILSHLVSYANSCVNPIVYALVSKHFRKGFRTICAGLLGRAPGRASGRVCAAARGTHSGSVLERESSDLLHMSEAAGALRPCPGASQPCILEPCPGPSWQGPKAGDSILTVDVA

[19] = target: T13, H2 (h) (Homo sapiens, UniProt P25021); parameters: CEREP ExpresSProfile competition binding, remaining control specific binding of reference compound; conditions: radioligand binding; read-out: Mean % of control specific binding (±sd)
T13 construct: gene HRH2
T13 sequence (P25021 whole entry): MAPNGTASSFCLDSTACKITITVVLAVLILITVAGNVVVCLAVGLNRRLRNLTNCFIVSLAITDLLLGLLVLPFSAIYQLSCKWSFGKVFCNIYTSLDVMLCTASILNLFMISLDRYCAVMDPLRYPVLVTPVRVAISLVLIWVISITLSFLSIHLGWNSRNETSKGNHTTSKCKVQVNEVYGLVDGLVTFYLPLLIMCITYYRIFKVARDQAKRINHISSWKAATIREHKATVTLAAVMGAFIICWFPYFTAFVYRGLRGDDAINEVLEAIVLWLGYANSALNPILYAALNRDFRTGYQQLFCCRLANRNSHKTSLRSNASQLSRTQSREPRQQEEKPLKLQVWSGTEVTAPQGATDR

[20] = target: T14, M1 (h) (Homo sapiens, UniProt P11229); parameters: CEREP ExpresSProfile competition binding, remaining control specific binding of reference compound; conditions: radioligand binding; read-out: Mean % of control specific binding (±sd)
T14 construct: gene CHRM1
T14 sequence (P11229 whole entry): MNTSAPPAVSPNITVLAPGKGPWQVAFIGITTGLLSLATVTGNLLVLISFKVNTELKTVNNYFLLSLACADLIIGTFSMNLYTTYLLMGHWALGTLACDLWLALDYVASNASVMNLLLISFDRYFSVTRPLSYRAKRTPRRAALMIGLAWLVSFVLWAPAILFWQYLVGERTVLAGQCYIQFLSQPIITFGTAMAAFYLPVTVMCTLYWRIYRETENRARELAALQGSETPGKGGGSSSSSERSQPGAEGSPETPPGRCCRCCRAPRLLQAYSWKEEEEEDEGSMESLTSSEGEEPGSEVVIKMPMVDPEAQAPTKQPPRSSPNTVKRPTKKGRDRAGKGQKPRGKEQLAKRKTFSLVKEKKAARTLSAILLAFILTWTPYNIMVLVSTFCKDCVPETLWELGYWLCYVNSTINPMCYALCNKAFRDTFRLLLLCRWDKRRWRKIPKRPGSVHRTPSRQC

[21] = target: T15, NK2 (h) (Homo sapiens, UniProt P21452); parameters: CEREP ExpresSProfile competition binding, remaining control specific binding of reference compound; conditions: radioligand binding; read-out: Mean % of control specific binding (±sd)
T15 construct: gene TACR2
T15 sequence (P21452 whole entry): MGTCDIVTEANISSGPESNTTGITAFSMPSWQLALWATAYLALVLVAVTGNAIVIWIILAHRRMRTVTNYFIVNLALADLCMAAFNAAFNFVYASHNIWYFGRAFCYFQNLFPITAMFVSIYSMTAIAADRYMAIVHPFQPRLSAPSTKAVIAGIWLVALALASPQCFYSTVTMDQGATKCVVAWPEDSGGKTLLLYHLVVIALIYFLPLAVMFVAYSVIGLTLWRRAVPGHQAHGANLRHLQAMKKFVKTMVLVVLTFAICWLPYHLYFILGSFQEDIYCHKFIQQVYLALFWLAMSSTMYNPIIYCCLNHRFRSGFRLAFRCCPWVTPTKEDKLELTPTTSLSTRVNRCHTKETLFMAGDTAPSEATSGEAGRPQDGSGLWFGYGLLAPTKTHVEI

[22] = target: T16, NOP (ORL1) (h) (Homo sapiens, UniProt P41146); parameters: CEREP ExpresSProfile competition binding, remaining control specific binding of reference compound; conditions: radioligand binding; read-out: Mean % of control specific binding (±sd)
T16 construct: gene OPRL1
T16 sequence (P41146 whole entry): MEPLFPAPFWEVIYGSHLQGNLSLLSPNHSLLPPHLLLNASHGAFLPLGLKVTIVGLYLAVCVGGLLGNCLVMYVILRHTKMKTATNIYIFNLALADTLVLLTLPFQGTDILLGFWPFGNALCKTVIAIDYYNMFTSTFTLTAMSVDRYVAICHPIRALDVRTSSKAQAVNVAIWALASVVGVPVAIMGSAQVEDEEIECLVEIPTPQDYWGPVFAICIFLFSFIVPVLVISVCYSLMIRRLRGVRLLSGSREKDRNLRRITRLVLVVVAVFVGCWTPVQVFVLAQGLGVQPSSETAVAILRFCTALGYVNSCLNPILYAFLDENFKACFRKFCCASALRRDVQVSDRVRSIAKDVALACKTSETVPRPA

[23] = target: T17, NTS1 (NT1) (h) (Homo sapiens, UniProt P30989); parameters: CEREP ExpresSProfile competition binding, remaining control specific binding of reference compound; conditions: radioligand binding; read-out: Mean % of control specific binding (±sd)
T17 construct: gene NTSR1

[24] = target: T18, beta 1 (h) (Homo sapiens, UniProt P08588); parameters: CEREP ExpresSProfile competition binding, remaining control specific binding of reference compound; conditions: radioligand binding; read-out: Mean % of control specific binding (±sd)
T18 construct: gene ADRB1

[25] = target: T19, delta (DOP) (h) (Homo sapiens, UniProt P41143); parameters: CEREP ExpresSProfile competition binding, remaining control specific binding of reference compound; conditions: radioligand binding; read-out: Mean % of control specific binding (±sd)
T19 construct: gene OPRD1

[26] = target: T20, norepinephrine transporter (h) (Homo sapiens, UniProt P23975); parameters: CEREP ExpresSProfile competition binding, remaining control specific binding of reference compound; conditions: radioligand binding; read-out: Mean % of control specific binding (±sd)
T20 construct: gene SLC6A2
T20 sequence (P23975 whole entry): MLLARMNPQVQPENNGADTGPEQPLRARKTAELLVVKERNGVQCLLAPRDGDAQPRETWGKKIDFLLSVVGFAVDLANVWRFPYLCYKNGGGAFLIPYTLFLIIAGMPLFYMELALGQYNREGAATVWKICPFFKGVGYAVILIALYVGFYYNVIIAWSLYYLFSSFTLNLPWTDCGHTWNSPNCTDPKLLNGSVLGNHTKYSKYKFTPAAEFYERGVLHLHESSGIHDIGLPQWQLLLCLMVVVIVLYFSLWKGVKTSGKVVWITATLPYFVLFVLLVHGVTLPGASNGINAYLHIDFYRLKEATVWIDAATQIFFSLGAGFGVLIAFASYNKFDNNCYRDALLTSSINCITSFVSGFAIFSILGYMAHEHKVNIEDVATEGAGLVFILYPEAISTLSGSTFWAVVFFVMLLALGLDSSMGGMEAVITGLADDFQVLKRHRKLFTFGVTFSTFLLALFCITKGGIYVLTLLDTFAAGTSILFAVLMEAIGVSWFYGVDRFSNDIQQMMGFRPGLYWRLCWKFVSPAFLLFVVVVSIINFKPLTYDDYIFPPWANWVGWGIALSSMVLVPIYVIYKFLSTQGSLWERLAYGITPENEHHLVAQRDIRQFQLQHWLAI

## Cc1ncsc1-c1ccc(CNC(=O)[C@@H]2C[C@@H](O)CN2C(=O)[C@@H](NC(=O)C2(C#N)CC2)C(C)(C)C)cc1 [VH298]
[1]
  remaining activity at 50 µM: 107%
[2]
  remaining activity at 50 µM: 112%
[3]
  remaining activity at 50 µM: 104%
[4]
  remaining activity at 50 µM: 85%
[5]
  remaining activity at 50 µM: 110%
[6]
  remaining activity at 50 µM: 112%
[7]
  remaining activity at 50 µM: 97%
[8]
  remaining binding at 50 µM: 82%
[9]
  remaining binding at 50 µM: 90%
[10]
  remaining binding at 50 µM: 121%
[11]
  remaining binding at 50 µM: 55%
[12]
  remaining binding at 50 µM: 84%
[13]
  remaining binding at 50 µM: 101%
[14]
  remaining binding at 50 µM: 127%
[15]
  remaining binding at 50 µM: 111%
[16]
  remaining binding at 50 µM: 102%
[17]
  remaining binding at 50 µM: 103%
[18]
  remaining binding at 50 µM: 87%
[19]
  remaining binding at 50 µM: 140%
[20]
  remaining binding at 50 µM: 94%
[21]
  remaining binding at 50 µM: 73%
[22]
  remaining binding at 50 µM: 92%
[23]
  remaining binding at 50 µM: 103%
[24]
  remaining binding at 50 µM: 83%
[25]
  remaining binding at 50 µM: 65%
[26]
  remaining binding at 50 µM: 96%
